# Source: PubChem BioAssay AID248 (DTP/NCI, 2004)
# Where “and” joins values, the source holds several entries; their conditions need not be identical. Equal values may be shown once. Toxic doses and inconclusive results are not listed.
# Test system: L1210 leukemia ip in BDF1 mice, survival T/C
# Assay: NCI In Vivo Anticancer Drug Screen. Data for tumor model L1210 Leukemia (intraperitoneal) in B6D2F1 (BDF1) mice
# Details: endpoint: mean survival time, higher = longer survival
# How it was run: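 Read-out is survival time, reported as the treated-group measurement over the vehicle-control measurement.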
# [1] = dose: 100.0 mg/kg/injection, schedule: Q04DX003 (ip), vehicle: saline with Tween-80
# [2] = dose: 200.0 mg/kg/injection, schedule: Q04DX003 (ip), vehicle: saline
# [3] = dose: 25.0 mg/kg/injection, schedule: Q01DX009 (ip), vehicle: saline
# [4] = dose: 50.0 mg/kg/injection, schedule: Q01DX009 (ip), vehicle: saline
# [5] = dose: 100.0 mg/kg/injection, schedule: Q01DX009 (ip), vehicle: saline
# [6] = dose: 200.0 mg/kg/injection, schedule: Q01DX009 (ip), vehicle: saline
# [7] = dose: 400.0 mg/kg/injection, schedule: Q01DX009 (ip), vehicle: saline
# [8] = dose: 100.0 mg/kg/injection, schedule: Q01DX001 (ip), vehicle: saline
# [9] = dose: 200.0 mg/kg/injection, schedule: Q01DX001 (ip), vehicle: saline
# [10] = dose: 400.0 mg/kg/injection, schedule: Q01DX001 (ip), vehicle: saline
# [11] = dose: 100.0 mg/kg/injection, schedule: Q04DX003 (ip), vehicle: Klucel (hydroxypropylcellulose) (HPC)
# [12] = dose: 200.0 mg/kg/injection, schedule: Q04DX003 (ip), vehicle: Klucel (hydroxypropylcellulose) (HPC)
# [13] = dose: 400.0 mg/kg/injection, schedule: Q04DX003 (ip), vehicle: Klucel (hydroxypropylcellulose) (HPC)
# [14] = dose: 25.0 mg/kg/injection, schedule: Q01DX001 (ip), vehicle: saline
# [15] = dose: 50.0 mg/kg/injection, schedule: Q01DX001 (ip), vehicle: saline
# [16] = dose: 400.0 mg/kg/injection, schedule: Q04DX003 (ip), vehicle: saline with Tween-80
# [17] = dose: 300.0 mg/kg/injection, schedule: Q01DX001 (ip), vehicle: saline
# [18] = dose: 200.0 mg/kg/injection, schedule: Q04DX003 (ip), vehicle: saline with Tween-80
# [19] = dose: 100.0 mg/kg/injection, schedule: Q01DX009 (ip), vehicle: Klucel (hydroxypropylcellulose) (HPC)
# [20] = dose: 200.0 mg/kg/injection, schedule: Q01DX009 (ip), vehicle: Klucel (hydroxypropylcellulose) (HPC)
# [21] = dose: 400.0 mg/kg/injection, schedule: Q01DX009 (ip), vehicle: Klucel (hydroxypropylcellulose) (HPC)
# [22] = dose: 100.0 mg/kg/injection, schedule: Q04DX002 (ip), vehicle: saline with Tween-80
# [23] = dose: 200.0 mg/kg/injection, schedule: Q04DX002 (ip), vehicle: saline with Tween-80
# [24] = dose: 400.0 mg/kg/injection, schedule: Q04DX002 (ip), vehicle: saline with Tween-80
smiles,measurement,setting,value
C[N+](C)(CC(=O)Nc1ccc(Cl)c(C(F)(F)F)c1)Cc1ccc(Cl)cc1,T/C,[1],100 % of control
O=C(O)c1ccc(C(=O)O)c([N+](=O)[O-])c1,T/C,"dose: 100.0 mg/kg/injection, schedule: Q04DX003 (ip), vehicle: saline",102 % of control
same,T/C,[2],100 % of control
same,T/C,"dose: 400.0 mg/kg/injection, schedule: Q04DX003 (ip), vehicle: saline",96 % of control
COC1=CCC2C(=O)OC(=O)C2C1 (stereo not given),T/C,[3],90 % of control
same,T/C,[4],94 % of control
same,T/C,[5],100 % of control
same,T/C,[6],109 % of control
same,T/C,[7],100 % of control
CCCCCCCCCC(=S)N1CCN(c2ccccc2)CC1,T/C,[8],95 % of control
same,T/C,[9],93 % of control
same,T/C,[10],90 % of control
O=C(Cl)c1ccc(C(Cl)(Cl)Cl)cc1,T/C,[11],95 % of control
same,T/C,[12],111 % of control
same,T/C,[13],104 % of control
CCOC=NC1=C(Cl)C(=O)C(N=COCC)=C(Cl)C1=O,T/C,[11],92 % of control
same,T/C,[12],94 % of control
COC1OC(CO)C(O)C1n1cnc2c(N)ncnc21 (stereo not given),T/C,[14],90 % of control
same,T/C,[15],106 % of control
same,T/C,[8],103 % of control
CCCCc1ccc2nc(NC(=O)OC)[nH]c2c1,T/C,"dose: 50.0 mg/kg/injection, schedule: Q01DX009 (oral), vehicle: saline with Tween-80",99 % of control
same,T/C,"dose: 100.0 mg/kg/injection, schedule: Q01DX009 (oral), vehicle: saline with Tween-80",109 % of control
same,T/C,"dose: 100.0 mg/kg/injection, schedule: Q04DX003 (oral), vehicle: saline with Tween-80",105 % of control
same,T/C,"dose: 200.0 mg/kg/injection, schedule: Q01DX009 (oral), vehicle: saline with Tween-80",108 % of control
same,T/C,[2],172 % of control
same,T/C,"dose: 200.0 mg/kg/injection, schedule: Q04DX003 (oral), vehicle: saline with Tween-80",105 % of control
same,T/C,"dose: 300.0 mg/kg/injection, schedule: Q04DX003 (ip), vehicle: saline",160 % of control
same,T/C,[16],107 % of control
same,T/C,"dose: 400.0 mg/kg/injection, schedule: Q04DX003 (oral), vehicle: saline with Tween-80",114 % of control
CCOC(=O)c1ccc[n+](Cc2ccccc2)c1,T/C,"dose: 75.0 mg/kg/injection, schedule: Q01DX001 (ip), vehicle: saline",101 % of control
same,T/C,"dose: 150.0 mg/kg/injection, schedule: Q01DX001 (ip), vehicle: saline",106 % of control
same,T/C,[17],98 % of control
CCCOC(=O)c1cncn1C(C)c1ccccc1 (stereo not given),T/C,[14],98 % of control
same,T/C,[15],96 % of control
same,T/C,[8],94 % of control
CC1CCCCN1C(CC(=O)c1ccccc1)C(=O)c1ccccc1 (stereo not given),T/C,[15],97 % of control
same,T/C,[8],95 % of control
same,T/C,[9],101 % of control
same,T/C,[10],101 % of control
NC(=O)c1ccc([N+](=O)[O-])cc1C(N)=O,T/C,[14],111 % of control
same,T/C,[15],97 % of control
same,T/C,[8],104 % of control
Cc1cccc(C)c1OCC1=NCCN1,T/C,"dose: 12.0 mg/kg/injection, schedule: Q01DX009 (ip), vehicle: saline",105 % of control
same,T/C,[3],111 % of control
same,T/C,[4],108 % of control
CC(C)=CCC/C(C)=C/Cn1cc([N+](=O)[O-])ccc1=O,T/C,"dose: 100.0 mg/kg/injection, schedule: Q01DX001 (ip), vehicle: saline with Tween-80",106 % of control
same,T/C,[1],111 % of control
same,T/C,"dose: 200.0 mg/kg/injection, schedule: Q01DX001 (ip), vehicle: saline with Tween-80",101 % of control
same,T/C,[18],111 % of control
same,T/C,"dose: 400.0 mg/kg/injection, schedule: Q01DX001 (ip), vehicle: saline with Tween-80",98 % of control
same,T/C,[16],102 % of control
Cc1cc(O)c(C)c2c1CC[C@H]1[C@@H]2OC(=O)[C@@H]1C,T/C,"dose: 100.0 mg/kg/injection, schedule: Q01DX001 (ip), vehicle: other",98 % of control
same,T/C,"dose: 200.0 mg/kg/injection, schedule: Q01DX001 (ip), vehicle: other",92 % of control
same,T/C,"dose: 400.0 mg/kg/injection, schedule: Q01DX001 (ip), vehicle: other",97 % of control
Cc1ccc(Cl)cc1NC(=O)/C=C/c1ccccc1,T/C,[19],104 % of control
same,T/C,[20],104 % of control
same,T/C,[21],102 % of control
CCc1ccc(/C(C#N)=C/c2ccc(N(C)C)cc2)cc1,T/C,"dose: 25.0 mg/kg/injection, schedule: Q01DX009 (ip), vehicle: Klucel (hydroxypropylcellulose) (HPC)",100 % of control
same,T/C,"dose: 50.0 mg/kg/injection, schedule: Q01DX009 (ip), vehicle: Klucel (hydroxypropylcellulose) (HPC)",91 % of control
same,T/C,[19],96 % of control and 90 % of control
ClCCN(CCCl)c1ccc(CNCCCNCc2ccc(N(CCCl)CCCl)cc2)cc1,T/C,"dose: 5.0 mg/kg/injection, schedule: Q01DX001 (ip), vehicle: carboxymethylcellulose (CMC)",105 % of control
same,T/C,"dose: 10.0 mg/kg/injection, schedule: Q01DX001 (ip), vehicle: carboxymethylcellulose (CMC)",110 % of control
same,T/C,"dose: 20.0 mg/kg/injection, schedule: Q01DX001 (ip), vehicle: carboxymethylcellulose (CMC)",103 % of control
C=CCOP(=O)(N1CC1C)N1CC1C (stereo not given),T/C,"dose: 29.0 mg/kg/injection, schedule: Q01DX015 (ip), vehicle: saline",105 % of control
same,T/C,"dose: 44.0 mg/kg/injection, schedule: Q01DX015 (ip), vehicle: saline",120 % of control
same,T/C,"dose: 66.0 mg/kg/injection, schedule: Q01DX015 (ip), vehicle: saline",114 % of control
same,T/C,"dose: 89.0 mg/kg/injection, schedule: Q01DX001 (ip), vehicle: saline",108 % of control
same,T/C,[9],152 % of control
same,T/C,[17],115 % of control
same,T/C,[10],86 % of control
CCCCCP(=O)(CCCCC)C1CCCC1,T/C,"dose: 25.0 mg/kg/injection, schedule: Q04DX002 (ip), vehicle: saline with Tween-80",113 % of control
same,T/C,"dose: 50.0 mg/kg/injection, schedule: Q04DX002 (ip), vehicle: saline with Tween-80",100 % of control
same,T/C,[22],94 % of control and 90 % of control
Cc1ccc(Cl)cc1NS(=O)(=O)c1ccccc1[N+](=O)[O-],T/C,[19],93 % of control
same,T/C,[20],93 % of control
same,T/C,[21],96 % of control
Cc1ccc(S(=O)(=O)Nc2ccc(NS(=O)(=O)c3ccc(C)cc3)cc2)cc1,T/C,[5],97 % of control
same,T/C,[11],105 % of control
same,T/C,[6],94 % of control
same,T/C,[12],95 % of control
same,T/C,[7],94 % of control
same,T/C,[13],101 % of control
COC(=O)C1OC(n2cnc3c(N)ncnc32)C(O)C1O (stereo not given),T/C,"dose: 100.0 mg/kg/injection, schedule: Q01DX005 (ip), vehicle: saline",101 % of control
same,T/C,"dose: 200.0 mg/kg/injection, schedule: Q01DX005 (ip), vehicle: saline",101 % of control
COc1ccc(OC(=O)Nc2ccccc2[N+](=O)[O-])cc1,T/C,[1],106 % of control
same,T/C,[18],94 % of control
same,T/C,[16],95 % of control
O=C(O)c1cc(C(=O)Nc2cccc3ccccc23)c(C(=O)O)cc1C(=O)Nc1cccc2ccccc12,T/C,"dose: 100.0 mg/kg/injection, schedule: Q01DX009 (ip), vehicle: saline with Tween-80",96 % of control and 87 % of control
same,T/C,[22],104 % of control and 116 % of control
same,T/C,[1],100 % of control
same,T/C,"dose: 200.0 mg/kg/injection, schedule: Q01DX009 (ip), vehicle: saline with Tween-80",97 % of control and 91 % of control
same,T/C,[23],94 % of control and 103 % of control
same,T/C,[18],105 % of control
same,T/C,"dose: 400.0 mg/kg/injection, schedule: Q01DX009 (ip), vehicle: saline with Tween-80",100 % of control and 92 % of control
same,T/C,[24],93 % of control and 89 % of control
same,T/C,[16],98 % of control
CC(=O)OCCc1ccc(Cl)cc1,T/C,[22],93 % of control
same,T/C,[23],96 % of control
same,T/C,[24],100 % of control
NC(=O)CCC(NC(=O)OCc1ccccc1)C(=O)O (stereo not given),T/C,[19],91 % of control
same,T/C,"dose: 100.0 mg/kg/injection, schedule: Q04DX002 (ip), vehicle: Klucel (hydroxypropylcellulose) (HPC)",97 % of control
same,T/C,[20],112 % of control
same,T/C,"dose: 200.0 mg/kg/injection, schedule: Q04DX002 (ip), vehicle: Klucel (hydroxypropylcellulose) (HPC)",97 % of control
same,T/C,[21],109 % of control
same,T/C,"dose: 400.0 mg/kg/injection, schedule: Q04DX002 (ip), vehicle: Klucel (hydroxypropylcellulose) (HPC)",105 % of control
